Measurements reported in US10660877B2 (BRISTOL-MYERS SQUIBB COMPANY, priority 2016, dated 2020).
pIC50: −log10 of the molar value. Read-outs that look alike come from different tables or passages of the source.

Assays:
human TLR9 = human TLR9 (Homo sapiens (Human), UniProt Q9NR96); experiment: TLR9 inhibition reporter assay (HEK-Blue cells, SEAP reporter, ODN2006 stimulation);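 further: compounds tested over 0.05 nM to 50 µM, 22 h incubation, inhibition taken as SEAP signal drop from agonist plus DMSO wells toward a known inhibitor control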
human TLR8 = human TLR8 (Homo sapiens (Human), UniProt Q9NR97); experiment: TLR8 inhibition reporter assay (HEK-Blue cells, SEAP reporter, R848 stimulation);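 further: compounds tested from 0.05 nM to 50 µM, 22 h at 37 °C, SEAP measured with HEK-Blue Detection, inhibition relative to agonist plus DMSO versus a known inhibitor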
human TLR7 = human TLR7 (Homo sapiens (Human), UniProt Q9NYK1); experiment: TLR7 inhibition reporter assay (HEK-Blue cells, SEAP reporter, gardiquimod stimulation); format: cell-based
[1] = read-out: TLR9 IC50, HEK-Blue cells overexpressing human TLR9, ODN2006 5 nM
[2] = read-out: TLR8 IC50, HEK-Blue cells overexpressing human TLR8, R848 15.9 μM
[3] = HEK-Blue cells overexpressing human TLR7, gardiquimod 7.5 μM
[4] = read-out: TLR9 IC50, HEK-Blue cells, ODN2006 5 nM
[5] = read-out: TLR8 IC50, HEK-Blue cells, R848 15.9 μM
[6] = HEK-Blue cells, gardiquimod 7.5 μM
[7] = TLR9 IC50, HEK-Blue cells overexpressing human TLR9, ODN2006 5 nM
[8] = TLR8 IC50, HEK-Blue cells overexpressing human TLR8, R848 15.9 μM

human TLR7, sequence (Q9NYK1 27-1049): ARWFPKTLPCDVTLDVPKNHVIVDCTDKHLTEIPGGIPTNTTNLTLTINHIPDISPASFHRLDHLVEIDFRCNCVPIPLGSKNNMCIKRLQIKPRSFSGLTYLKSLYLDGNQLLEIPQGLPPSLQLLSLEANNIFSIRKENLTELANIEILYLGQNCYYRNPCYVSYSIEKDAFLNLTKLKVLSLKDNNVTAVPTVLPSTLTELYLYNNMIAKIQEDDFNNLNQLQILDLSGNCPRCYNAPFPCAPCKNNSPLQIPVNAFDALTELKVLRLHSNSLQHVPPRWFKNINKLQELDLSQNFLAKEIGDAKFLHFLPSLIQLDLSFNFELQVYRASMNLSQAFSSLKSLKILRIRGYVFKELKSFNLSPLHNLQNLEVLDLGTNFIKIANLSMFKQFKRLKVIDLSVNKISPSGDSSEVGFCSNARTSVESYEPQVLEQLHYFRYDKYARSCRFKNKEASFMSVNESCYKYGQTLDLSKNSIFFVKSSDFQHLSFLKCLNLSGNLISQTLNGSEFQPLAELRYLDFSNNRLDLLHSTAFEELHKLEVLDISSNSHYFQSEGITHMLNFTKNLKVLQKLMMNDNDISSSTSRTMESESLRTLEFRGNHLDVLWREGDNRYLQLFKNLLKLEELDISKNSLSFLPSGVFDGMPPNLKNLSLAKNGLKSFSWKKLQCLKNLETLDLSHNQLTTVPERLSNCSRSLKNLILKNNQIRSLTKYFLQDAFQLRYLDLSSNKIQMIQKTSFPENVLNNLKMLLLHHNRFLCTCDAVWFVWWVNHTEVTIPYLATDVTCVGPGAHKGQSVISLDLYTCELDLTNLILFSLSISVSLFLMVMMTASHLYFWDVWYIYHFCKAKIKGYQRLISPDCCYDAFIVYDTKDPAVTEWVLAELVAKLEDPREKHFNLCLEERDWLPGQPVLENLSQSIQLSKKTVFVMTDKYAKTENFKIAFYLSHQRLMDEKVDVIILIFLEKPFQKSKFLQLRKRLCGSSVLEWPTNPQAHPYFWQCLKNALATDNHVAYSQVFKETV
human TLR8, sequence (Q9NR97 27-1041): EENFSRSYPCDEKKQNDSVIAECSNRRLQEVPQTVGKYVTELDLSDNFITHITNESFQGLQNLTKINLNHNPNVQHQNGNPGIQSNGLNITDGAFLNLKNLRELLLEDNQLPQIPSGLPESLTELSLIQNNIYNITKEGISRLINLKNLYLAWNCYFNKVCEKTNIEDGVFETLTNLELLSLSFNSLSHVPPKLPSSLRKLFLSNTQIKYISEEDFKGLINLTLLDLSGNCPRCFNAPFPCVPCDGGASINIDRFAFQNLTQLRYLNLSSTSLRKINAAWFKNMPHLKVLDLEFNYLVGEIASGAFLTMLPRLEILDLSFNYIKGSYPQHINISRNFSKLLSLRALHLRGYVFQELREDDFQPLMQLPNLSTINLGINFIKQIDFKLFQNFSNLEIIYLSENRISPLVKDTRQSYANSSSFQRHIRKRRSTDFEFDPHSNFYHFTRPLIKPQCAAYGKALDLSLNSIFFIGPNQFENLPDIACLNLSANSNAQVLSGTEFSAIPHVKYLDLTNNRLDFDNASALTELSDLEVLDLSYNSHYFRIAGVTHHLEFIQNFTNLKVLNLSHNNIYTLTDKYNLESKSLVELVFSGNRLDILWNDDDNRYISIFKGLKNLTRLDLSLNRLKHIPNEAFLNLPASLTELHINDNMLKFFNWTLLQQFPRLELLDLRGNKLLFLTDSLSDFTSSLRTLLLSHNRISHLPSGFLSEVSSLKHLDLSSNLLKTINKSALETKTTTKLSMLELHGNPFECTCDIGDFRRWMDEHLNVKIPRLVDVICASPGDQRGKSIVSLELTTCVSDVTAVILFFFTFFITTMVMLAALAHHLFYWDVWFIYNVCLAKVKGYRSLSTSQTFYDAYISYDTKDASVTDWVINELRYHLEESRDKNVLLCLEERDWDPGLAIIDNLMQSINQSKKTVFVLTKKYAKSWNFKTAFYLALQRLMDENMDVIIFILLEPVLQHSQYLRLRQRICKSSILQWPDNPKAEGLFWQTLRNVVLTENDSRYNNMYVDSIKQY
human TLR9, sequence (Q9NR96 26-1032): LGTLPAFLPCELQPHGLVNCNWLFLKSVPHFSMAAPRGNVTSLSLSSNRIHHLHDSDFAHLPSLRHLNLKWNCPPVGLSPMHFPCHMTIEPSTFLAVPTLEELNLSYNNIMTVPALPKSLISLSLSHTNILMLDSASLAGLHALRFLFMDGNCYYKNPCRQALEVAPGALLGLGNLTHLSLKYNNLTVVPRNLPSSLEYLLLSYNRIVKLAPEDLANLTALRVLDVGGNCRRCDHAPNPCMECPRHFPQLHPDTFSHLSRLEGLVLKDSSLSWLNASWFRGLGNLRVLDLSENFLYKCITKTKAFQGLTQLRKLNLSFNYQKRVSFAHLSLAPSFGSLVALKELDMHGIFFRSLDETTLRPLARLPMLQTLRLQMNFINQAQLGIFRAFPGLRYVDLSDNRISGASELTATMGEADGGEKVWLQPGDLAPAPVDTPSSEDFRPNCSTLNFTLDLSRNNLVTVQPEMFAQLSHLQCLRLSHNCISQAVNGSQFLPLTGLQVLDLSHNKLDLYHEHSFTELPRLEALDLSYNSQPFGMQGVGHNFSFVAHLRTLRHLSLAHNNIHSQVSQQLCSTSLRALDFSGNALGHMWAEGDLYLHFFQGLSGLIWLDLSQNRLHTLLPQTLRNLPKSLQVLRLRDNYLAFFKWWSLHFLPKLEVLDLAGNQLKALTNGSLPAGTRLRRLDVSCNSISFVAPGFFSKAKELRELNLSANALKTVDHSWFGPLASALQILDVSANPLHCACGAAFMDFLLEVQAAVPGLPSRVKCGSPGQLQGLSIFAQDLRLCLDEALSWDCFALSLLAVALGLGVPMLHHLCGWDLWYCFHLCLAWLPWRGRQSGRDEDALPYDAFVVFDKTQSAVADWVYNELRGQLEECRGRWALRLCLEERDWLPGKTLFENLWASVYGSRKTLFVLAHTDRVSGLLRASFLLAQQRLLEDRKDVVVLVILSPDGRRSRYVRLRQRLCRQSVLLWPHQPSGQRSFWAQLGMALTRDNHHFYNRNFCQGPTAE

Structure (SMILES)	pIC50 (human TLR9; [1])	pIC50 (human TLR8; [2])	pIC50 (human TLR7; [3])	pIC50 (human TLR9; [4])	pIC50 (human TLR8; [5])	pIC50 (human TLR7; [6])	pIC50 (human TLR9; [7])	pIC50 (human TLR8; [8])
Cc1cc(-c2[nH]c3ccc(C4CCN(Cc5nnc(C6CC6)o5)CC4)cc3c2C(C)C)cc(C)n1 [Example 448, 2-cyclopropyl-5-((4-(2-(2,6-dimethylpyridin-4-yl)-3-isopropyl-1H-indol-5-yl)piperidin-1-yl)methyl)-1,3,4-oxadiazole]	4.32	7.25	7.29					
CCc1c(-c2ccnc(OC)c2)[nH]c2ccc(C3CCN(C4C[C@H]5CCC[C@@H](C4)N5C)CC3)cc12 (stereo partly drawn) [Example 798, 3-ethyl-2-(2-methoxypyridin-4-yl)-5-(1-((1R,3r,5S)-9-methyl-9-azabicyclo[3.3.1]nonan-3-yl)piperidin-4-yl)-1H-indole]	7.17	6.78	6.20					
Cc1cc(-c2[nH]c3ccc(C4CCN(C(=O)C5(C)COC5)CC4)cc3c2C(C)C)ccn1 [Example 596, (4-(3-isopropyl-2-(2-methylpyridin-4-yl)-1H-indol-5-yl)piperidin-1-yl)(3-methyloxetan-3-yl)methanone]	4.35	6.99	7.48					
Cc1cc(-c2[nH]c3ccc(C4CCN(Cc5ccn(C)n5)CC4)cc3c2C(C)C)c(F)cn1 [Example 692]	5.83	9.05	7.99					
CCc1c(-c2cc(Cl)ncc2F)[nH]c2ccc(C3CCN(C4CCN(CC(C)C)CC4)CC3)cc12 [Example 760, 2-(2-chloro-5-fluoropyridin-4-yl)-3-ethyl-5-(1′-isobutyl-[1,4′-bipiperidin]-4-yl)-1H-indole]	5.62	6.97	6.27					
Cc1cc(-c2[nH]c3ccc(C4CCN(C(=O)CC(F)(F)F)CC4)cc3c2C(C)C)ccn1 [Example 600, 3,3,3-trifluoro-1-(4-(3-isopropyl-2-(2-methylpyridin-4-yl)-1H-indol-5-yl)piperidin-1-yl)propan-1-one]	< 4.30	6.57	6.92					
Cc1cc(-c2[nH]c3ccc(C4CCN(Cc5cc(C)on5)CC4)cc3c2C(C)C)c(C)cn1 [Example 685, 3-((4-(2-(2,5-dimethylpyridin-4-yl)-3-isopropyl-1H-indol-5-yl)piperidin-1-yl)methyl)-5-methylisoxazole]	5.12	8.47	7.20					
Cc1cc(-c2[nH]c3ccc(C4CCN(C5CCN(C(C)C)CC5)CC4)cc3c2C)c(C)cn1 [Example 814, 2-(2,5-dimethylpyridin-4-yl)-5-(1′-isopropyl-[1,4′-bipiperidin]-4-yl)-3-methyl-1H-indole]				7.00	8.62	7.29		
Cc1cc(-c2[nH]c3ccc(C4CCN(Cc5c[nH]cn5)CC4)cc3c2CC(F)F)cc(C)n1 [Example 537, 5-(1-((1H-imidazol-4-yl)methyl)piperidin-4-yl)-3-(2,2-difluoroethyl)-2-(2,6-dimethylpyridin-4-yl)-1H-indole]	7.49	7.27	7.44					
Cc1nccc(-c2[nH]c3ccc(C4CCN(Cc5ncn(C)n5)CC4)cc3c2C(C)C)c1F [Example 732, 2-(3-fluoro-2-methylpyridin-4-yl)-3-isopropyl-5-(1-((1-methyl-1H-1,2,4-triazol-3-yl)methyl)piperidin-4-yl)-1H-indole]	5.00	7.99	7.65					
Cc1cc(-c2[nH]c3ccc(C4CCN(C(=O)C(=O)NCCc5ccncc5)CC4)cc3c2C(C)C)cc(C)n1 [Example 860, 2-(4-(2-(2,6-dimethylpyridin-4-yl)-3-isopropyl-1H-indol-5-yl)piperidin-1-yl)-2-oxo-N-(2-(pyridin-4-yl)ethyl)acetamide]				4.81	7.05	8.01		
Cc1cc(-c2[nH]c3ccc(C4CCN(CC(=O)N(C)[C@H]5CCOC5)CC4)cc3c2C(C)C)cc(C)n1 [Example 307, (S)-2-(4-(2-(2,6-dimethylpyridin-4-yl)-3-isopropyl-1H-indol-5-yl)piperidin-1-yl)-N-methyl-N-(tetrahydrofuran-3-yl)acetamide]	5.43	7.06	7.75					
Cc1nccc(-c2[nH]c3ccc(C4CCNCC4)cc3c2C(C)C)c1N [Example 13, 4-(3-isopropyl-5-(piperidin-4-yl)-1H-indol-2-yl)-2-methylpyridin-3-amine]	6.38	7.05	7.79					
CCc1c(-c2ccnc(N(C)C)c2)[nH]c2ccc(C3CCN(C4CCN(CC(C)C)CC4)CC3)cc12 [Example 767, 4-(3-ethyl-5-(1′-isobutyl-[1,4′-bipiperidin]-4-yl)-1H-indol-2-yl)-N,N-dimethylpyridin-2-amine]	7.01	5.91	5.43					
CCc1c(-c2ccnc(C)c2)[nH]c2ccc(C3CCN(C(=O)[C@@H]4CCCN4)CC3)cc12 [Example 629]			7.22				6.32	7.73
Cc1cc(-c2[nH]c3ccc(C4CCN(Cc5ccccc5)CC4)cc3c2C(C)C)cc(C)n1 [Example 318, 5-(1-benzylpiperidin-4-yl)-2-(2,6-dimethylpyridin-4-yl)-3-isopropyl-1H-indole]	6.11	7.90	7.60					
Cc1cc(-c2[nH]c3ccc(C4CCN(CC5CCCC5)CC4)cc3c2C(C)C)cc(C)n1 [Example 468, 5-(1-(cyclopentylmethyl)piperidin-4-yl)-2-(2,6-dimethylpyridin-4-yl)-3-isopropyl-1H-indole]	5.87	7.45	7.75					
CCc1c(-c2ccnc(C)c2)[nH]c2c(F)cc(C3CCNCC3)cc12 [Example 81, 3-ethyl-7-fluoro-2-(2-methylpyridin-4-yl)-5-(piperidin-4-yl)-1H-indole]	6.16	6.04	6.21					

Continued by rising pIC50 (human TLR7; [3]), values first:

pIC50 (human TLR9; [1])	pIC50 (human TLR8; [2])	pIC50 (human TLR7; [3])	pIC50 (human TLR9; [4])	pIC50 (human TLR8; [5])	pIC50 (human TLR7; [6])	pIC50 (human TLR9; [7])	pIC50 (human TLR8; [8])	Structure (SMILES)
6.16	7.69	8.01						Cc1cc(-c2[nH]c3ccc(C4CCN(C(=O)CNC56CC7CC(CC(O)(C7)C5)C6)CC4)cc3c2C(C)C)cc(C)n1 [Example 343, 1-(4-(2-(2,6-dimethylpyridin-4-yl)-3-isopropyl-1H-indol-5-yl)piperidin-1-yl)-2-((3-hydroxyadamantan-1-yl)amino)ethan-1-one]
6.21	8.12	8.03						Cc1cc(-c2[nH]c3ccc(C4CCN(Cc5ccnn5C)CC4)cc3c2C(C)C)cc(C)n1 [Example 461, 2-(2,6-dimethylpyridin-4-yl)-3-isopropyl-5-(1-((1-methyl-1H-pyrazol-5-yl)methyl)piperidin-4-yl)-1H-indole]
6.79	8.24	8.19						Cc1cc(-c2[nH]c3ccc(C4CCN(C5CCN(C(C)C)CC5)CC4)cc3c2C(C)C)ccn1 [Example 701, 3-isopropyl-5-(1′-isopropyl-[1,4′-bipiperidin]-4-yl)-2-(2-methylpyridin-4-yl)-1H-indole]
		8.25				6.26	7.67	Cc1cc(-c2[nH]c3ccc(C4CCN(C(=O)CNC5(C)CCOCC5)CC4)cc3c2C(C)C)cc(C)n1 [Example 374, 1-(4-(2-(2,6-dimethylpyridin-4-yl)-3-isopropyl-1H-indol-5-yl)piperidin-1-yl)-2-((4-methyltetrahydro-2H-pyran-4-yl)amino)ethan-1-one]
5.92	8.44	8.43						Cc1cc(-c2[nH]c3ccc(C4CCN(C5CCS(=O)(=O)CC5)CC4)cc3c2C(C)C)cc(C)n1 [Example 459, 4-(4-(2-(2,6-dimethylpyridin-4-yl)-3-isopropyl-1H-indol-5-yl)piperidin-1-yl)tetrahydro-2H-thiopyran 1,1-dioxide]
6.50	9.15	8.44						Cc1cc(-c2[nH]c3ccc(C4CCN(Cc5ccn(C)n5)CC4)cc3c2C(C)C)cc(C)n1 [Example 445, 2-(2,6-dimethylpyridin-4-yl)-3-isopropyl-5-(1-((1-methyl-1H-pyrazol-3-yl)methyl)piperidin-4-yl)-1H-indole]
6.35	7.95	8.46						Cc1cc(-c2[nH]c3ccc(C4CCN(C(=O)CN(C)C(C)C)CC4)cc3c2C(C)C)cc(C)n1 [Example 354, 1-(4-(2-(2,6-dimethylpyridin-4-yl)-3-isopropyl-1H-indol-5-yl)piperidin-1-yl)-2-(isopropyl(methyl)amino)ethan-1-one]
6.27	7.66	8.49						Cc1cc(-c2[nH]c3ccc(C4CCN(C(=O)CNC5CCCOC5)CC4)cc3c2C(C)C)cc(C)n1 (stereo not drawn) [Example 385, 1-(4-(2-(2,6-dimethylpyridin-4-yl)-3-isopropyl-1H-indol-5-yl)piperidin-1-yl)-2-((tetrahydro-2H-pyran-3-yl)amino)ethan-1-one]
6.44	7.91	8.51						CO[C@@H]1C[C@H](CO)N(C(=O)CN2CCC(c3ccc4[nH]c(-c5cc(C)nc(C)c5)c(C(C)C)c4c3)CC2)C1 [Example 292, 2-(4-(2-(2,6-dimethylpyridin-4-yl)-3-isopropyl-1H-indol-5-yl)piperidin-1-yl)-1-((2R,4R)-2-(hydroxymethyl)-4-methoxypyrrolidin-1-yl)ethan-1-one]
4.33	7.08	8.51						COCCOCC(=O)N1CCC(c2ccc3[nH]c(-c4cc(C)nc(C)c4)c(C(C)C)c3c2)CC1 [Example 114, 1-(4-(2-(2,6-dimethylpyridin-4-yl)-3-isopropyl-1H-indol-5-yl)piperidin-1-yl)-2-(2-methoxyethoxy)ethan-1-one]
